{"source": "patent US8604021B2", "about": "“Substituted arylamine compounds and methods of treatment” (priority 2005, dated 2013)", "key": {"5-HT6 receptor": {"target": "5-HT6 receptor (Homo sapiens, UniProt P50406)", "sequence (P50406 whole entry)": "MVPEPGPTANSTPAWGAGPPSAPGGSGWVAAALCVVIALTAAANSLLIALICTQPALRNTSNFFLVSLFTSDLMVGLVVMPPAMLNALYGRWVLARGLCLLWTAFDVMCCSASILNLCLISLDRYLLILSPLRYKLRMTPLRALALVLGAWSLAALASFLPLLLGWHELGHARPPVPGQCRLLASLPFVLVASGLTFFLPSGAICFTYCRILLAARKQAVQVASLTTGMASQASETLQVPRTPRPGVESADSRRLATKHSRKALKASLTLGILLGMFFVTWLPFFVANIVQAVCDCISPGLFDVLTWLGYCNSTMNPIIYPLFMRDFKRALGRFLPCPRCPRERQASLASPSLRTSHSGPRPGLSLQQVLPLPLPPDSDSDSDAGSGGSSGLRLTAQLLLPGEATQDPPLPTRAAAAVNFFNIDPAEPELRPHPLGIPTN", "test": "5-HT6 receptor binding"}, "[1]": {"test": "Food intake, body weight and plasma biomarkers in DIO (diet-induced obese) rats", "format": "in vivo", "conditions": "DIO rats, 3, 10 mg/kg bid, two weeks"}, "M1": {"target": "T1, M1 (Homo sapiens, UniProt P11229)", "T1 sequence (P11229 1-460)": "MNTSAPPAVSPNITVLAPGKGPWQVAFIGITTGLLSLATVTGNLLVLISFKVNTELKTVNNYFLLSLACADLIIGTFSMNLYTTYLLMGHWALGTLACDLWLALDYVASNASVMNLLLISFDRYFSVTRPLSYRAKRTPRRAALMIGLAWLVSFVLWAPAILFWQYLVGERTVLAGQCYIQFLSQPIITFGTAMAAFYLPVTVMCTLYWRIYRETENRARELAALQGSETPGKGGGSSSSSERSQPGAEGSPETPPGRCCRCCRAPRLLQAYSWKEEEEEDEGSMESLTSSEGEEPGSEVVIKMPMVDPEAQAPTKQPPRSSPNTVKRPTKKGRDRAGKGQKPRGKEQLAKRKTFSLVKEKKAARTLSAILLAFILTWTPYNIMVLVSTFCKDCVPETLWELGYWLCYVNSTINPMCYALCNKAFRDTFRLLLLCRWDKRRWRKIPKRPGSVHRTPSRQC", "test": "Compound Binding Profiles: M1"}, "D2": {"target": "D2 (Homo sapiens, UniProt P14416)", "sequence (P14416 whole entry)": "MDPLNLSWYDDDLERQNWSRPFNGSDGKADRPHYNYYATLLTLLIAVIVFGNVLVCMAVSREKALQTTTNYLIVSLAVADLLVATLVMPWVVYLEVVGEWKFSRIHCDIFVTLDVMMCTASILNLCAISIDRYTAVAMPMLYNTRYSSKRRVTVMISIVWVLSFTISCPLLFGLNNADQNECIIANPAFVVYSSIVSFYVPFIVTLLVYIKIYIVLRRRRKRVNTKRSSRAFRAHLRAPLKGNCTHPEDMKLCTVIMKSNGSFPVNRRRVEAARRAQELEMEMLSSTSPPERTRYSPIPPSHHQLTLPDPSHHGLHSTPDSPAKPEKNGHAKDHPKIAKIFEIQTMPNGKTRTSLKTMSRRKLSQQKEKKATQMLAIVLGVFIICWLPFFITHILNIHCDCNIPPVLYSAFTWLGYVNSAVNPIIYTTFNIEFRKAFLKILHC", "test": "Compound Binding Profiles: D2", "conditions": "* = Estimated IC50"}, "α1": {"target": "α1", "test": "Compound Binding Profiles: α1"}, "α2": {"target": "α2", "test": "Compound Binding Profiles: α2"}, "5HT2A": {"target": "5HT2A (Homo sapiens, UniProt P28223)", "sequence (P28223 whole entry, species assumed)": "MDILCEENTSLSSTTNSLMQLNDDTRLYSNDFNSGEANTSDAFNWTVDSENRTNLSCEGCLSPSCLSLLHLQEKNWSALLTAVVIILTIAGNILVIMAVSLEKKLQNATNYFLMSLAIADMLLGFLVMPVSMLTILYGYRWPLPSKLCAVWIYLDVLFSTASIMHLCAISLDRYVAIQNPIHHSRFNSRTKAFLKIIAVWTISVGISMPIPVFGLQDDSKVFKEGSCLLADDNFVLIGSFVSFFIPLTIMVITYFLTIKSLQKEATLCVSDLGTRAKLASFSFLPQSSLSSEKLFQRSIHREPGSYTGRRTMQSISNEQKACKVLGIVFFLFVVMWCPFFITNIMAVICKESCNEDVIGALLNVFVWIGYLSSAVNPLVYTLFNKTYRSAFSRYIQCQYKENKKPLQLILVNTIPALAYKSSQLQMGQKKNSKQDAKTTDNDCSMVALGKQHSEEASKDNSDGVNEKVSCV", "test": "Compound Binding Profiles: 5HT2A"}, "H1": {"target": "H1 (Homo sapiens, UniProt P35367)", "sequence (P35367 whole entry)": "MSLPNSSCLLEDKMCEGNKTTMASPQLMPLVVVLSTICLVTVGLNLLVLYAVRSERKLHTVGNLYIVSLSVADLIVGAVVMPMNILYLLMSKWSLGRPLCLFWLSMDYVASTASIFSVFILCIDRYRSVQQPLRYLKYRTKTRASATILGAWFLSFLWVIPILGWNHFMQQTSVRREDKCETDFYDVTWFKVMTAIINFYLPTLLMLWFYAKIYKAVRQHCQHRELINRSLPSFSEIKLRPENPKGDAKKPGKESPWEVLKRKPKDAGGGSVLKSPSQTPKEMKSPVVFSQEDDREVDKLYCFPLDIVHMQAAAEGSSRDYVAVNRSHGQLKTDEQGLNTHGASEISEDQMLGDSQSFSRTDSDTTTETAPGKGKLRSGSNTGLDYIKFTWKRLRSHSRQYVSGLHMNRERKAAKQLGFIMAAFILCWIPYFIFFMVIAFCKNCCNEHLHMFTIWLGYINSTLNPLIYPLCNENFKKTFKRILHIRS", "test": "Compound Binding Profiles: H1", "conditions": "* = Estimated IC50"}, "D4": {"target": "T2, D4 (Homo sapiens, UniProt P21917)", "T2 sequence (P21917 1-419)": "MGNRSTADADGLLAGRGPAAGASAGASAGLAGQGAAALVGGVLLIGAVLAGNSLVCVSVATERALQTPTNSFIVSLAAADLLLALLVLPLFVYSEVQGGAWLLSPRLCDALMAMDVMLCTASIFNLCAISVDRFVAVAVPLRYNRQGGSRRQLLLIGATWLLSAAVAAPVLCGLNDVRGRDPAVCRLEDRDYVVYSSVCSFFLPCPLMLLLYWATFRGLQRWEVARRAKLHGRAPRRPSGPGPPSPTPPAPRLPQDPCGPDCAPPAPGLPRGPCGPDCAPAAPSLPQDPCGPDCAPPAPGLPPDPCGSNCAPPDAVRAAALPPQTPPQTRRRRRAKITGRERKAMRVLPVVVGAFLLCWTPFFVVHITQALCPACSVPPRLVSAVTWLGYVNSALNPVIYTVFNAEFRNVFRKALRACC", "test": "Compound Binding Profiles: D4", "conditions": "read-out: D4 binding class"}, "D3": {"target": "D3 (Homo sapiens, UniProt P35462)", "sequence (P35462 whole entry)": "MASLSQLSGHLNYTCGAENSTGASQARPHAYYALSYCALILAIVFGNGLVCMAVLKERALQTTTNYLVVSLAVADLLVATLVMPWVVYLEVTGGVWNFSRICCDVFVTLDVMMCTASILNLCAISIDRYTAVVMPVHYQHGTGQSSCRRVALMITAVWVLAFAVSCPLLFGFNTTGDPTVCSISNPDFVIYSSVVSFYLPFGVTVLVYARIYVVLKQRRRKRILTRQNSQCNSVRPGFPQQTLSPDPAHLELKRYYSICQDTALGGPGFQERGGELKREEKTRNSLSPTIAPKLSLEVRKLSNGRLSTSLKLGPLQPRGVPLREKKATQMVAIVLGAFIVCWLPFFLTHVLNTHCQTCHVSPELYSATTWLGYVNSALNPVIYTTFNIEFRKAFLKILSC", "test": "Compound Binding Profiles: D3"}, "5HT1A": {"target": "T3, 5HT1A (Homo sapiens, UniProt P08908)", "T3 sequence (P08908 1-422)": "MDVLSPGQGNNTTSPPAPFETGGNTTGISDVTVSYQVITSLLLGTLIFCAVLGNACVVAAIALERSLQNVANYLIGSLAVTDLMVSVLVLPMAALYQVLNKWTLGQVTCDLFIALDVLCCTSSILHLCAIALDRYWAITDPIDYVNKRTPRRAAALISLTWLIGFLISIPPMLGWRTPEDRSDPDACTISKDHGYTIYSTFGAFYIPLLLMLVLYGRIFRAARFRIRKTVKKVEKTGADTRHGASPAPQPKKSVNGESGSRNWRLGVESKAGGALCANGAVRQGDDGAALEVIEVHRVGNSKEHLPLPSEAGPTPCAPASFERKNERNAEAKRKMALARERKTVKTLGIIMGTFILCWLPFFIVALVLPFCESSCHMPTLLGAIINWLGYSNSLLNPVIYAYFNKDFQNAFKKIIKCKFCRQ", "test": "Compound Binding Profiles: 5HT1A", "conditions": "read-out: 5HT1A binding class"}, "D1": {"target": "D1 (Homo sapiens, UniProt P21728)", "sequence (P21728 whole entry)": "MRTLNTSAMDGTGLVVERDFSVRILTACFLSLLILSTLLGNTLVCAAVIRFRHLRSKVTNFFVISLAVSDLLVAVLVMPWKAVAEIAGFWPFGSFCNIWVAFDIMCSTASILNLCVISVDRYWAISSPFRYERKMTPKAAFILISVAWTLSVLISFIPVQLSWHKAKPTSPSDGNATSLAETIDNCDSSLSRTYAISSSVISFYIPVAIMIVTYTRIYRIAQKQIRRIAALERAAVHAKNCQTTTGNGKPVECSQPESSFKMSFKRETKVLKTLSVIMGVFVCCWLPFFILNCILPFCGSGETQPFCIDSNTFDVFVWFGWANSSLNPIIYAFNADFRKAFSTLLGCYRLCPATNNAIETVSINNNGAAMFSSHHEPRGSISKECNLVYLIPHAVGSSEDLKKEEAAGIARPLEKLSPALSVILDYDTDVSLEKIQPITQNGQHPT", "test": "Compound Binding Profiles: D1", "conditions": "read-out: D1 binding class"}, "5HT2C": {"target": "T4, 5HT2C (Homo sapiens, UniProt P28335)", "T4 sequence (P28335 33-458)": "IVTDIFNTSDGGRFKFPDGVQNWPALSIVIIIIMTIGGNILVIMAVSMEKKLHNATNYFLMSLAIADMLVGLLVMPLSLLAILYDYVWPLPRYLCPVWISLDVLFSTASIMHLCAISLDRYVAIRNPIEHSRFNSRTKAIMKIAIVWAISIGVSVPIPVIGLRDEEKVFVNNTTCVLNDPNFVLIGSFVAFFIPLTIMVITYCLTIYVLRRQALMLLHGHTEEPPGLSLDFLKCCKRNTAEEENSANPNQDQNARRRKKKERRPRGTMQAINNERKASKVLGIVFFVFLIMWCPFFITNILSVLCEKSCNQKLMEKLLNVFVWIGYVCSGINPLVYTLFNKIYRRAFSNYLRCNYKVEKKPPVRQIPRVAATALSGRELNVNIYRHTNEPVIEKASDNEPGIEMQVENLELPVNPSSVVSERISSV", "test": "Compound Binding Profiles: 5HT2C"}, "[2]": {"test": "Novel object recognition test", "format": "in vivo, C57Bl/6J mice", "conditions": "for effect on recognition index / object recognition compared to vehicle: 0.1 mg/kg i.p", "excerpt": "Male C57Bl/6J mice from Jackson Laboratories (Bar Harbor, Me.) were used. Mice were received at 6-weeks of age. Upon receipt, mice were assigned unique identification numbers (tail marked) and were group housed in polycarbonate cages with filter tops. All animals remained housed in groups of four during the remainder of the study. All mice were acclimated to the colony room for at least two weeks prior to testing and were subsequently tested at an average age of 8 weeks of age. During the period of acclimation, mice were examined on a regular basis, handled, and weighed to assure adequate health and suitability. Mice were maintained on a 12/12 light/dark cycle with the light on at 6:00 a.m. The room temperature was maintained between 20 and 23° C. with a relative humidity maintained between 30% and 70%. Chow and water were provided ad libitum for the duration of the study. In each test, animals were randomly assigned across treatment groups.\nThe pH at the 10 mg/kg was around 5.5.\nRolipram, also dissolved in 10% DMSO was only administered 20 min prior to training on Day 2.\nOn Day 1, mice were habituated to a circular open field environment (d=18 in, h=15 cm) for one hour in cage groups of four. Each Arena was constructed out of acrylic that was painted black to block reflection. On day 2, mice were placed back into the same arena for a training trial and allowed to explore a set of two identical objects placed equidistance apart from both each other and the arena walls. Individual mice were trained for a total of 15 minutes and then placed back into their home cages. On Day 3, mice were placed back into the same arena in the presence of both the familiar (previously explored) and a novel object. The spatial positions of the familiar and novel object (i.e. left-right sides) were counterbalanced between subjects. The difference in time spent exploring each object during the test trial was used as an index of object recognition and memory retention. Each animals test trial was recorded and these tapes were observed and scored after test completion. The first 10 min of each session was scored and object recognition was computed using the formula: (Time spent with novel object*100)/(Total Time exploring both objects). Tissue Harvest\nData were analyzed by analysis of variance (ANOVA) followed by post-hoc comparisons with Fisher Tests when appropriate. An effect was considered significant if p<0.05. Data are represented as the mean and standard error to the mean."}, "[3]": {"conditions": "* = Estimated IC50, hydrochloride"}}, "note": "Counter-ions that a name gives are not always drawn. Like-named read-outs stand apart in the source and are kept apart here."}
{"smiles": "COc1cc(Cl)cc(C(C)Nc2cc(N3CCNCC3)ccc2S(C)(=O)=O)c1OC", "note": "(single isomer, unassigned; (+)) [(+) isomer, [1-(5-Chloro-2,3-dimethoxy-phenyl)-ethyl]-(2-methanesulfonyl-5-piperazin-1-yl-phenyl)-amine hydrochloride]", "values": [{"measurement": "Ki", "setting": "5-HT6 receptor; read-out: 5-HT6 Ki", "value": 18, "unit": "nM"}]}
{"smiles": "COc1cc(Cl)cc(C(C)Nc2cc(N3CCNCC3)ccc2S(C)(=O)=O)c1OC", "note": "(single isomer, unassigned; (-)) [(−) isomer, [1-(5-Chloro-2,3-dimethoxy-phenyl)-ethyl]-(2-methanesulfonyl-5-piperazin-1-yl-phenyl)-amine hydrochloride]", "values": [{"measurement": "Ki", "setting": "5-HT6 receptor; 5-HT6 Ki", "value": 4.5, "unit": "nM"}]}
{"smiles": "CC(Nc1cc(N2CCNCC2)ccc1S(C)(=O)=O)c1ccccc1", "note": "(stereo not shown) [Compound B, 2-(Methylsulfonyl)-N-(1-phenylethyl)-5-(piperazin-1-yl)benzenamine hydrochloride]", "values": [{"measurement": "Ki", "setting": "5-HT6 receptor; read-out: 5-HT6 Ki", "value": 47, "unit": "nM"}]}
{"smiles": "COc1cc(OC)cc(C(C)Nc2cc(N3CCNCC3)ccc2C(=O)C(F)(F)F)c1", "note": "(stereo not shown) [Compound C, 1-(2-(1-(3,5-Dimethoxyphenyl)ethylamino)-4-(piperazin-1-yl)phenyl)-2,2,2-trifluoroethanone hydrochloride]", "values": [{"measurement": "Ki", "setting": "5-HT6 receptor; read-out: 5-HT6 Ki", "value": 34, "unit": "nM"}]}
{"smiles": "COc1cc(OC)cc(C(C)Nc2cc(N3CCNCC3)ccc2S(C)(=O)=O)c1.Cl", "note": "(stereo not shown) [Compound D, N-(1-(3,5-Dimethoxyphenyl)ethyl-2-(methylsulfonyl)-5-(piperazin-1-yl)-benzeneamine hydrochloride]", "values": [{"measurement": "Ki", "setting": "5-HT6 receptor; read-out: 5-HT6 Ki", "value": 27, "unit": "nM"}]}
{"smiles": "COc1cc(OC)cc(C(C)Nc2cc(N3CCNCC3)ccc2S(C)(=O)=O)c1.Cl", "note": "(stereo not shown) [Compound D]", "values": [{"measurement": "body weight", "setting": "[1]", "value": "significant decrease"}, {"measurement": "food intake", "setting": "[1]", "value": "significant decrease"}, {"measurement": "plasma level of Insulin", "setting": "[1]", "value": "reduction"}, {"measurement": "plasma level of Leptin", "setting": "[1]", "value": "reduction"}, {"measurement": "plasma level of NEFA", "setting": "[1]", "value": "reduction"}, {"measurement": "plasma level of triglycerides", "setting": "[1]", "value": "reduction"}]}
{"smiles": "CC(Nc1cc(N2CCNCC2)ccc1S(C)(=O)=O)c1cc(Cl)cc2c1OCCO2", "note": "(stereo not shown) [Cpd. E, N-(1-(6-Chloro-2,3-dihydrobenzo[b][1,4]dioxin-8-yl)ethyl)-2-(methylsulfonyl)-5-(piperazin-1-yl)benzenamine hydrochloride]", "values": [{"measurement": "IC50", "setting": "M1; * = Estimated IC50", "value": 10000, "unit": "nM"}, {"measurement": "IC50", "setting": "D2", "value": 613, "unit": "nM"}, {"measurement": "Ki", "setting": "5-HT6 receptor; binding profile table, read-out: 5HT6 Ki", "value": 1.3, "unit": "nM"}, {"measurement": "IC50", "setting": "α1; [3]", "value": 24000, "unit": "nM"}, {"measurement": "IC50", "setting": "α2; [3]", "value": 30000, "unit": "nM"}, {"measurement": "Ki", "setting": "5HT2A", "value": 150, "unit": "nM"}, {"measurement": "IC50", "setting": "H1", "value": 20000, "unit": "nM"}, {"measurement": "Ki", "setting": "D4", "value": "100 to 1000", "unit": "nM"}, {"measurement": "Ki", "setting": "D3", "value": 2.8, "unit": "nM"}, {"measurement": "Ki", "setting": "5HT1A", "value": "100 to 1000", "unit": "nM"}, {"measurement": "Ki", "setting": "D1", "value": "100 to 1000", "unit": "nM"}, {"measurement": "Ki", "setting": "5HT2C", "value": 12, "unit": "nM"}]}
{"smiles": "COc1ccc(C2CNC(=O)C2)cc1OC1CCCC1", "note": "(stereo not shown) [Rolipram, reference compound]", "values": [{"measurement": "Exploration time, Diff of Means Novel vs. Familiar", "setting": "[2]; 0.1 mg/kg", "value": 29.803}, {"measurement": "time exploring novel object versus familiar object", "setting": "[2]; 0.1 mg/kg", "value": "spent more time exploring novel object than the familiar object"}, {"measurement": "effect on recognition index / object recognition compared to vehicle", "setting": "[2]", "value": "significant, positive effect on object recognition"}, {"measurement": "effect on recognition index / object recognition compared to vehicle", "setting": "[2]; listed as rolipram", "value": "significantly increased the recognition index"}, {"measurement": "Memory index, Mean", "setting": "[2]; 0.1 mg/kg, 10 min test", "value": 71.670}, {"measurement": "Exploration time, Mean", "setting": "[2]; 0.1 mg/kg, Familiar Object", "value": 19.172}, {"measurement": "Exploration time, Mean", "setting": "[2]; 0.1 mg/kg, Novel Object", "value": 48.975}, {"measurement": "Exploration time, Diff of Means 10% DMSO vs. treatment", "setting": "[2]; within Familiar, 0.1 mg/kg", "value": 4.807}, {"measurement": "Exploration time, Diff of Means treatment vs. 10% DMSO", "setting": "[2]; within Novel, 0.1 mg/kg", "value": 17.991}]}
{"smiles": "O=C1Cc2cc(CCN3CCN(c4nsc5ccccc45)CC3)c(Cl)cc2N1", "note": "[Ziprasidome, reference compound]", "values": [{"measurement": "Ki", "setting": "M1; read-out: M1 binding class", "value": "< 10", "unit": "nM"}, {"measurement": "Ki", "setting": "5-HT6 receptor; read-out: 5HT6 binding class", "value": "11 to 100", "unit": "nM"}, {"measurement": "Ki", "setting": "α1; read-out: α1 binding class", "value": "100 to 1000", "unit": "nM"}, {"measurement": "Ki", "setting": "α2; read-out: α2 binding class", "value": "100 to 1000", "unit": "nM"}, {"measurement": "Ki", "setting": "5HT1A", "value": "< 10", "unit": "nM"}]}
